Measured values reported in patent US4960790A, “Derivatives of taxol, pharmaceutical compositions thereof and methods for the preparation thereof” (University of Kansas, priority 1989, dated 1990).
Where a name gives a salt, the structure may show the parent alone. Read-outs that look alike come from different tables or passages of the source. Values belong to the molecule of their own block, whether it stands above or below them.

Key:
[1] = system: human mammary carcinoma MX-1 xenograft; test: Subrenal capsule human mammary carcinoma MX-1 xenograft in mice; conditions: for ANML BODY WT DIFF (test minus control) / TEST BODY WT CHG / # OF ANMLS ALIVE CALC/TOTAL / Average tumor WEIGHT CHANGE (DELTA) / Average tumor weight, FINAL: Q4D; for ANML BODY WT DIFF (test minus control) / TEST BODY WT CHG: Day 1 to 11; for # OF ANMLS ALIVE CALC/TOTAL / Average tumor WEIGHT CHANGE (DELTA) / Average tumor weight, FINAL / % T/C: Day 11; for % T/C: Q4D Days 1, 5, 9
Excerpt: The procedures followed are those described at pages 23-24 of NIH Publication No. 84-2635, In Vivo Cancer Model (February 1984).
In the procedure, test groups of mice (6 mice per test group) and control groups of 12 mice per group are utilized. A tumor fragment (human mammary carcinoma MX-1 xenograft), is implanted under the membranous covering of the kidney of each mouse.
Day 0: Anesthetize animals. Record body weight (Weigh Day 1). Implant tumor, measure and record. Randomize animals after they recover from the anesthetic. Run bacterial cultures. Determine solubilities of test agent. Record deaths daily.
Day 1: Check cultures. Discard experiment if contaminated. Prepare test materials. Initiate test agent injections (in the nape of the neck) based on individual body weight. Treatment is Q4D on Days 1, 5, and 9. Prepare test agent fresh on each injection day and administer based on individual body weight for that day.
Days 5 and 9: Prepare test agent fresh on each injection day and administer based on individual body weight for that day.
Day 11: End and evaluate experiment. Record body weights (Weigh Day 2). Measure tumor in OMU's (Ocular Micrometer Unit--10 OMU's=1 mm) and record.
The parameter measured is mean tumor weight change (delta) based on length and width measurements in millimeters. Mean animal body weights are computed for Day 1 and Day 11, compute T/C for all test groups with>65% survivors on Day 11. An excessive body weight change difference (test minus control) may also be used in evaluating toxicity. The dimensions are measured and recorded in Ocular Micrometer Units (OMU). A computer is utilized for the following:
(1) Converts OMU's to millimeters (mm).
(2) Calculates tumor weights (mgs) from tumor dimensions (mm×mm) following the formula for the volume of a prolate ellipsoid: [formula] (3) Calculates the change (delta) in mean tumor weight for each group of mice:
Change in Mean Tumor Weight=Mean Tumor WeightFINAL -Mean Tumor WeightINITIAL.
(4) Calculates the change (delta) in mean tumor weight for test (T) and control (C) groups.
(5) Calculates T/C% for all test groups with>65% survivors on Final Evaluation Day: [formula]

[2] = Plasma stability, human plasma; type: in vitro ADME; conditions: 37° C.
Protocol: Stabilities of derivatives at various pHs were studied at 25° and 37°. The plasma studies were conducted at 37° in rat and human plasma. Human plasma was obtained from Watkins Hospital and rat plasma was obtained from the Animal Care Unit of the University of Kansas. […] One hundred microliter samples were removed and was quenched with 250 uL. acetonitrile and centrifuged to precipitate the plasma proteins. The degradation kinetics were studied by HPLC plotting peak area vs. time. The t90 and t50 were calculated. Both chemical and plasma studies were followed by high performance liquid chromatography using a RP-8 column (15 cm) and a precolumn (5 cm). The detector was set at 227 nm. The mobile phase consisted of 0.02M acetate (pH 5): acetonitrile 50:50 or 35:65 and the flow rate ranged from 1-1.5 mL/min or the same solvents containing 0.001M tetrabutylammoniumydrogensulphate and a flow rate of 1 mL/min.

[3] = Solubility; type: physicochemical
[4] = Chemical stability in buffer or water; type: physicochemical
Protocol: The compound was subjected to stability studies according to the following procedures.
Stabilities of derivatives at various pHs were studied at 25° and 37°. The plasma studies were conducted at 37° in rat and human plasma. Human plasma was obtained from Watkins Hospital and rat plasma was obtained from the Animal Care Unit of the University of Kansas. The derivative concentration used was around 20-25 μg/ml. A stock solution of the compound was prepared at 0.8-1.0 mg/mL and was added to plasma to give the desired concentration (20-25 μg/mL). One hundred microliter samples were removed and was quenched with 250 uL. acetonitrile and centrifuged to precipitate the plasma proteins. The degradation kinetics were studied by HPLC plotting peak area vs. time. The t90 and t50 were calculated. Both chemical and plasma studies were followed by high performance liquid chromatography using a RP-8 column (15 cm) and a precolumn (5 cm). The detector was set at 227 nm. The mobile phase consisted of 0.02M acetate (pH 5): acetonitrile 50:50 or 35:65 and the flow rate ranged from 1-1.5 mL/min or the same solvents containing 0.001M tetrabutylammoniumydrogensulphate and a flow rate of 1 mL/min.
The identity of this peak was further confirmed by the degradation studies of the new derivatives. Thus, 2'(DMG) taxol was incubated with water at 37° and the product was concentrated and purified by preparative TLC. The product after purification was analyzed by HPLC and spectroscopic methods.

[5] = system: B-16 melanoma cells; test: In vitro B16 melanoma cell proliferation; type: cell-based; conditions: rank order
Protocol: These studies were conducted according to standard procedures as described in Donoso and Himes, Cancer Biochem. Biophysics, vol. 7, (1984), p. 133.

[6] = system: microtubule assembly; test: In vitro microtubule assembly kinetics; type: biochemical; conditions: rank order
Protocol: (A) In vitro Microtubule Assembly Kinetics Studies
The microtubule assembly study was conducted using both 2' and 7-derivatives according to the in vitro procedures disclosed, for example, in Mellado et al., Biochemical and Biophysical Research Communications, Vol. 124, No. 2 (1984), pp. 329-336; Magri et al., J. Org. Chem., 51, 797-802 (1986); and Parness et al., Biochemical and Biophysical Research Communications, Vol. 105, No. 3, pp. 1082-1091 (1982).

SMILES: CCN(CC)CCC(=O)O[C@@H](C(=O)O[C@H]1C[C@@]2(O)[C@@H](OC(=O)c3ccccc3)[C@@H]3[C@]4(OC(C)=O)CO[C@@H]4C[C@H](O)[C@@]3(C)C(=O)[C@H](OC(C)=O)C(=C1C)C2(C)C)[C@@H](NC(=O)c1ccccc1)c1ccccc1 [Compound 3, HCl salt of 2'-(3-(N,N-diethylamino)propionyl)taxol]
- ANML BODY WT DIFF (test minus control) ([1]; Table 2, 4.50 mg/kg): 1.2
- TEST BODY WT CHG ([1]; Table 2, 4.50 mg/kg): -2.8
- # OF ANMLS ALIVE CALC/TOTAL ([1]; Table 2, 4.50 mg/kg): 5/5
- Average tumor WEIGHT CHANGE (DELTA) ([1]; Table 2, 4.50 mg/kg): -.78 MGS
- Average tumor weight, FINAL ([1]; Table 2, 4.50 mg/kg): .00 MGS
- ANML BODY WT DIFF (test minus control) ([1]; Table 2, 9.00 mg/kg): 1.3
- TEST BODY WT CHG ([1]; Table 2, 9.00 mg/kg): -2.7
- # OF ANMLS ALIVE CALC/TOTAL ([1]; Table 2, 9.00 mg/kg): 5/5
- Average tumor WEIGHT CHANGE (DELTA) ([1]; Table 2, 9.00 mg/kg): -.87 MGS
- Average tumor weight, FINAL ([1]; Table 2, 9.00 mg/kg): .00 MGS
- ANML BODY WT DIFF (test minus control) ([1]; Table 2, 18.00 mg/kg): .7
- TEST BODY WT CHG ([1]; Table 2, 18.00 mg/kg): -3.3
- # OF ANMLS ALIVE CALC/TOTAL ([1]; Table 2, 18.00 mg/kg): 3/4
- Average tumor WEIGHT CHANGE (DELTA) ([1]; Table 2, 18.00 mg/kg): -.82 MGS
- Average tumor weight, FINAL ([1]; Table 2, 18.00 mg/kg): .00 MGS
- % T/C ([1]; Table 2, 36.00 mg/kg): TOX
- # OF ANMLS ALIVE CALC/TOTAL ([1]; Table 2, 36.00 mg/kg): 0/5
- half-life ([2]; Human plasma): 0.07 h
- solubility [3]: ~ 0.8 mg/mL
- half-life ([4]; 0.02 M Acetate, 0.01 mg/mL, pH 3.5, 25° C.): 439 h
- half-life ([4]; 0.02 M Phosphate, 0.02 mg/mL, pH 7.4, 25° C.): 0.25 h

SMILES: CCN(CC)CCC(=O)O[C@@H](C(=O)O[C@H]1C[C@@]2(O)[C@@H](OC(=O)c3ccccc3)[C@@H]3[C@]4(OC(C)=O)CO[C@@H]4C[C@H](O)[C@@]3(C)C(=O)[C@H](OC(C)=O)C(=C1C)C2(C)C)[C@@H](NC(=O)c1ccccc1)c1ccccc1 [Compound 4, Methanesulphonic acid salt of 2'(N,N-diethylaminopropionyl)taxol]
- solubility [3]: > 10 mg/mL
- half-life ([4]; 0.02 M acetate, pH 4.5, 25° C.): 305 h
- half-life ([4]; 0.02 M acetate, pH 5.5, 25° C.): 20.7 h

SMILES: CC(=O)O[C@H]1C(=O)[C@]2(C)[C@@H](OC(=O)CN(C)C)C[C@H]3OC[C@@]3(OC(C)=O)[C@H]2[C@H](OC(=O)c2ccccc2)[C@]2(O)C[C@H](OC(=O)[C@H](O)[C@@H](NC(=O)c3ccccc3)c3ccccc3)C(C)=C1C2(C)C [Compound 7, 7-(N,N-Dimethylglycyl)Taxol]
- % T/C ([1]; Table 2, 4.13 mg/kg): 34%
- ANML BODY WT DIFF (test minus control) ([1]; Table 2, 4.13 mg/kg): -.5
- TEST BODY WT CHG ([1]; Table 2, 4.13 mg/kg): -4.5
- # OF ANMLS ALIVE CALC/TOTAL ([1]; Table 2, 4.13 mg/kg): 4/5
- Average tumor WEIGHT CHANGE (DELTA) ([1]; Table 2, 4.13 mg/kg): 4.92 MGS
- Average tumor weight, FINAL ([1]; Table 2, 4.13 mg/kg): 5.66 MGS
- % T/C ([1]; Table 2, 8.25 mg/kg): 23%
- ANML BODY WT DIFF (test minus control) ([1]; Table 2, 8.25 mg/kg): .1
- TEST BODY WT CHG ([1]; Table 2, 8.25 mg/kg): -3.9
- # OF ANMLS ALIVE CALC/TOTAL ([1]; Table 2, 8.25 mg/kg): 4/4
- Average tumor WEIGHT CHANGE (DELTA) ([1]; Table 2, 8.25 mg/kg): 3.38 MGS
- Average tumor weight, FINAL ([1]; Table 2, 8.25 mg/kg): 4.19 MGS
- % T/C ([1]; Table 2, 16.50 mg/kg): -93%
- ANML BODY WT DIFF (test minus control) ([1]; Table 2, 16.50 mg/kg): -1.7
- TEST BODY WT CHG ([1]; Table 2, 16.50 mg/kg): -5.7
- # OF ANMLS ALIVE CALC/TOTAL ([1]; Table 2, 16.50 mg/kg): 3/4
- Average tumor WEIGHT CHANGE (DELTA) ([1]; Table 2, 16.50 mg/kg): -.55 MGS
- Average tumor weight, FINAL ([1]; Table 2, 16.50 mg/kg): .04 MGS
- ANML BODY WT DIFF (test minus control) ([1]; Table 2, 33.00 mg/kg): 1.3
- TEST BODY WT CHG ([1]; Table 2, 33.00 mg/kg): -2.7
- # OF ANMLS ALIVE CALC/TOTAL ([1]; Table 2, 33.00 mg/kg): 4/5
- Average tumor WEIGHT CHANGE (DELTA) ([1]; Table 2, 33.00 mg/kg): -.74 MGS
- Average tumor weight, FINAL ([1]; Table 2, 33.00 mg/kg): .00 MGS
- Order of effectiveness in B-16 melanoma cell proliferation study [5]: taxol>2'-(N,N-dimethylglycyl)taxol>2'-(N,N-diethylaminopropionyl)taxol>7-(N,N-dimethylglycyl)taxol
- Ability to assemble microtubules (order) [6]: taxol >7-(N,N-dimethylglycyl)taxol(11)>2'(N,N-diethylaminopropionyl)taxol(8)>2'(N,N-dimethylglycyl)taxol(2)

- half-life ([2]; human plasma (20 μg/mL)): 11.9 h
- solubility ([3]; read-out: Solubility): > 2 mg/mL
SMILES: CC(=O)O[C@H]1C(=O)[C@]2(C)[C@@H](OC(=O)[C@H](C)N)C[C@H]3OC[C@@]3(OC(C)=O)[C@H]2[C@H](OC(=O)c2ccccc2)[C@]2(O)C[C@H](OC(=O)[C@H](O)[C@@H](NC(=O)c3ccccc3)c3ccccc3)C(C)=C1C2(C)C [Methanesulphonic acid salt of 7-(alanyl)taxol]
